The text below walks through data of publication PMC11314343, “Improving the Solubility, Stability, and Bioavailability of Albendazole through Synthetic Salts” (Molecules, 2024).

Converted amounts (≈) assume the structure as drawn.

A short description of data set [1]: Intrinsic dissolution rate (IDR). The data set is classed as physicochemical. The conditions noted are these: 37 °C. The procedure:
The powdered sample (140 mg) was measured and compacted to a tablet hardness of 5 Kg by a tester, employing a small manual tablet press. […] Then, 0.3 mL of the solution was withdrawn, at 1 min intervals, and subsequently subjected to centrifugation (15,000 rpm, 3 min). Afterward, it was subjected to double dilution with methanol and analyzed for the presence of the drug using HPLC.

Data set [2] is described as follows: Dynamic vapor sorption (DVS), moisture adsorption isotherms. The format is physicochemical. The following applies: for water adsorption: 25 °C, at 90% RH. The procedure:
The moisture sorption characteristics of all specimens were assessed at a temperature of 25 °C using an automated dynamic vapor sorption analyzer (Surface Measurement Systems, Wembley, UK). Prior to the sorption examination, the samples were equilibrated at a humidity level of 0% relative humidity (RH) to remove any adsorbed moisture. The specimens underwent a gradual variation in relative humidity, transitioning from 0 to 90% RH at intervals of 10% RH. Humidity was adjusted by increasing it by +10% RH after 6 h or upon achieving the equilibrium condition. The equilibrium condition was met when there was a <0.002% change in mass per minute within a span of 10 min. Upon completion of the sorption sequence, all samples were subjected to drying at 0% RH, which was stopped when the Δm/Δt was less than 0.002%/min within 10 min.

Data set [3] can be described thus: Pharmacokinetic comparison in Wistar rats after oral administration. On the procedure:
In vivo pharmacokinetic examination of albendazole and albendazole salts was performed in a half-male and half-female group of Wistar rats (n = 6), with an average body weight of 200 ± 20 g. The rats were fasted for one night before administration of albendazole at a dose of 25 mg/kg by gavage. Blood sampling was conducted by placing a jugular vein catheter surgically the day before administration. […] The tubes were centrifuged at 13,000× g for 10 min, and the upper plasma was collected and stored in an ultra-low-temperature freezer at −80 °C. Samples were processed by obtaining 100 μL of plasma; then, 400 μL of methanol was added, the samples were vortexed for 1 min, and they were centrifuged at 13,000× g for 5 min. Finally, 300 μL of the supernatant was obtained. A mixture of 6 μL of 10 μG/mL toluidazole internal standard solution was added to the supernatant. After 1 min of vortexing, the samples were centrifuged at 13,000× g for 5 min. The supernatant was then filtered through a microporous filter membrane before employing UPLC-HR-ESI-MS to assess the drug content.
The plasma concentrations of ABZ were assessed using a Dionex Ultimate 3000 RSLC system (Thermo Fisher, Waltham, MA, USA) equipped with an ACQUITY UPLC BEH C18 Column (130 Å, 150 mm × 2.1 mm × 2.6 μm) at a column temperature of 30 ± 1 °C. […] The MS analysis was conducted using a Q-Orbitrap MS coupled with heated electrospray ionization (HESI, Washington, DC, USA). The MS analysis was performed in full MS-ddMS^2 mode, with damping gas in the C-trap and nitrogen used to stabilize the spray. The auxiliary gas heater and capillary temperatures were established and maintained at 350 °C and 320 °C, respectively. In the negative mode, a spray voltage of 3.0 kV and an S-lens RF level of 60 V were employed. The full MS-ddMS^2 scan range was from 150.0000 to 1000.0000 m/z, and the precise molecular weight […] was employed for qualitative analysis. The corresponding peak area was utilized for quantitative analysis, and the MS^2 fragments were employed in further qualitative analysis.
The pharmacokinetic parameters were examined through non-compartment model analysis using DAS 2.0.

Data set [4] can be described thus: Solid-state stability, influencing factor testing (strong light, high humidity, elevated temperature). The data set is classed as physicochemical. The conditions noted are these: for stability under influencing factor conditions: 4500 ± 500 lux; for stability under influencing factor conditions / crystal transformation (PXRD): 92.5 ± 5% RH, 50 ± 2 °C; for crystal transformation (PXRD): strong light 4500 ± 500 lux, 0, 5, 10 days; for change of IDR on the 5th and 10th days compared to day 0: strong light, high humidity and high temperature. On the procedure: Influencing factor testing included a strong light irradiation test, a high-humidity test, and an elevated temperature test. The strong light irradiation test involved placement of the sample opening under a light with an intensity of 4500 ± 500 lux. The high-humidity test involved placement of the sample in a constant-humidity container at 25 °C and 92.5% RH (saturated potassium nitrate solution). The high-temperature test involved placing the sample in a DHG-9070A constant-temperature oven (Shanghai Yiheng Technology Instrument Co., Ltd., Shanghai, China), set at 50 °C. Samples were taken on the 0th, 5th, and 10th days, and the crystal structure and dissolution of the samples were assessed for significant differences based on PXRD and IDR, as outlined above.

A short description of data set [5]: Accelerated stability testing. The data set is classed as physicochemical. The following applies: for stability under accelerated test conditions: 40 °C/75 ± 5% RH; for PXRD spectra under accelerated stability conditions: 40 ± 2 °C/75 ± 5% RH, 0, 3, 6 months. The procedure:
Accelerated testing was utilized to contrast the stability of ABZ and its salts in the solid state. The solid variations were placed in an airtight container at 40 ± 2 °C with a humidity level of 75 ± 5% RH, and specimens were harvested at the intervals of 0, 3, and 6 months. PXRD analysis was used to ascertain whether there were any substantial alterations in dissolution properties and the crystal structure of the sample.

On the set-up of data set [6]: method as in PMID 18938096. The following applies: cited from earlier work.
Details of data set [7]: method as in PMID 12527162. The conditions noted are these: cited from earlier work.
For data set [8] the following is noted: water at 25 °C; cited from earlier work.
Setting [9] is: Wistar rats, oral 25 mg/kg, plasma ABZ.
Where [10] appears, read: both, Wistar, rat, plasma, po, 25 mg/kg.

What is called Tmax is the time from dosing to the highest level. The term Cmax denotes the highest concentration seen after dosing. Regarding `CCCSc1ccc2[nH]c(NC(=O)OC)nc2c1.O=C(O)C=CC(=O)O` [ABZ-FMA, albendazole fumarate], the IDR in data set [1] (pH 2 buffer) was found to be 0.0328 mg·cm^−2·min^−1. In data set [1] (pH 7.4 buffer), this compound came in with an IDR of 0.0009 mg·cm^−2·min^−1. Further, in data set [2], the water adsorption was determined as 6.72%. In addition, in data set [3] (Wistar rats, oral 25 mg/kg), the “Cmax increase compared to ABZ” value was “approximately 3.8 times”, the “MRT(0–24)” value is 6.41 ± 0.66 h, the “MRT(0–∞)” value came out at 17.53 ± 15.90 h and the T1/2 amounted to 14.07 ± 14.37 h. In addition, the Tmax in data set [3] (Wistar rats, oral 25 mg/kg) was found to be 1.67 ± 1.17 h. Besides, in data set [3] (setting [9]), the “AUC(0–24)” value was determined as 1205.56 ± 855.61 ng/mL/h, the “AUC(0–∞)” value came out at 1975.42 ± 1856.96 ng/mL/h and the Cmax is reported as 260.58 ± 179.73 ng/mL. In data set [4], the “stability under influencing factor conditions” value is “remained stable for 10 days”; the “crystal transformation (PXRD)” value is “not observed”; the “change of IDR on the 5th and 10th days compared to day 0” value (from here on “change of IDR on the 5th and 10th days”) is on record as “no statistically significant difference”. In data set [5], the “stability under accelerated test conditions” value was “remained stable for 6 months” and the “PXRD spectra under accelerated stability conditions” value (shortened to “PXRD spectra”) was “unchanged”.
In data set [1] (pH 2 buffer), `CCCSc1ccc2[nH]c(NC(=O)OC)nc2c1.Cl` [ABZ-HCl, albendazole hydrochloride] returned an IDR of 0.1128 mg·cm^−2·min^−1. The compound further displayed an IDR in data set [1] (pH 7.4 buffer) of 0.0041 mg·cm^−2·min^−1. Further, the water adsorption in data set [2] is 37.65%. For the same compound, in data set [3] (Wistar rats, oral 25 mg/kg), the “Cmax increase compared to ABZ” value was ~6.9 times, the “MRT(0–24)” value was found to be 7.66 ± 2.08 h, the “MRT(0–∞)” value stood at 24.65 ± 33.76 h and the T1/2 is 16.85 ± 23.17 h. Besides, in data set [3] (Wistar rats, oral 25 mg/kg), the Tmax was found to be 1.21 ± 0.68 h. Moreover, in data set [3] (setting [9]), the “AUC(0–24)” value was determined as 3089.28 ± 1228.16 ng/mL/h, the “AUC(0–∞)” value is given as 5371.96 ± 4618.85 ng/mL/h and the Cmax turned out to be 478.96 ± 138.62 ng/mL. In data set [4], the “stability under influencing factor conditions” value was “remained stable for 10 days”; the “crystal transformation (PXRD)” value is on record as “not observed”; the “change of IDR on the 5th and 10th days” value was “no statistically significant difference”. In data set [5], the “stability under accelerated test conditions” value is on record as “remained stable for 6 months” and the “PXRD spectra” value was “unchanged”.
As a reminder, the log P is the decadic logarithm of the partition coefficient of the neutral form, usually between octanol and water. The half-life is how long it takes for the measured level to halve. A word on the AUC(0-inf): it is total exposure, with the tail of the curve extrapolated. A higher AUC(0-inf) goes with more exposure. One may read the AUC(0-t) as the area under the concentration-time curve up to a stated or last time point. Higher therefore signals high exposure. As a reminder, the MRT inf is a mean duration of stay, worked out from the concentration-time curve. A word on the MRT last: it is a mean duration of stay, worked out from the concentration-time curve. Regarding `CCCSc1ccc2nc(NC(=O)OC)[nH]c2c1` [ABZ, Albendazole], the “oral bioavailability in humans” value in data set [6] was “less than 5%”. Moreover, in data set [1] (pH 2 buffer), the IDR stood at 0.0096 mg·cm^−2·min^−1. For the same compound, the IDR in data set [1] (pH 7.4 buffer) is listed as 0.0004 mg·cm^−2·min^−1. The log partition coefficient (log P) in data set [7] is 2.54. This compound showed a water adsorption in data set [2] of 3.86%. In addition, the half-life in data set [3] (both, Wistar, rat, in vivo, po, 25 mg/kg) was 5.98 ± 3.27 h. In data set [3] (setting [10]), this compound displayed an AUC(0-inf) of 374 ± 136 ng·h/mL, an AUC(0-t) of 352 ± 147 ng·h/mL, a Cmax of 69.6 ± 51.7 ng/mL and an MRT inf of 9.19 ± 5.1 h. For the same compound, in data set [3] (setting [10]), the MRT last was 7.07 ± 2.27 h and the Tmax amounted to 2.54 ± 1.57 h. In addition, the “change of IDR after being placed at 50 °C” value in data set [4] (50 °C, 5 and 10 days vs day 0) is given as “increased”. For the same compound, the solubility in water in data set [8] is 22.8 µg/mL (≈ 85.9 µM).
`CCCSc1ccc2[nH]c(NC(=O)OC)nc2c1.O=C(O)C(O)C(O)C(=O)O` [ABZ-DTA, albendazole D-tartrate]: the IDR in data set [1] (pH 2 buffer) came out at 0.0730 mg·cm^−2·min^−1. The same compound registered an IDR in data set [1] (pH 7.4 buffer) of 0.0008 mg·cm^−2·min^−1. In data set [2], this compound had a water adsorption of 70.15%. Also, the “weight increase by water adsorption” value in data set [2] (sharp increase when the RH reached 60%) amounted to 47.59%. In data set [3] (Wistar rats, oral 25 mg/kg), the “Cmax increase compared to ABZ” value is on record as ~4.6 times, the “MRT(0–24)” value came to 6.67 ± 0.61 h, the “MRT(0–∞)” value came to 8.92 ± 1.51 h and the T1/2 was 6.11 ± 1.21 h. The Tmax in data set [3] (Wistar rats, oral 25 mg/kg) was determined as 1.25 ± 0.61 h. In addition, in data set [3] (setting [9]), the “AUC(0–24)” value worked out at 1835.37 ± 379.84 ng/mL/h, the “AUC(0–∞)” value came to 1955.94 ± 431.79 ng/mL/h and the Cmax is 322.68 ± 68.67 ng/mL. Also, in data set [4], the “stability under influencing factor conditions” value is on record as “remained stable for 10 days”; the “crystal transformation (PXRD)” value is on record as “not observed”; the “change of IDR on the 5th and 10th days” value is “no statistically significant difference”. Also, in data set [5], the “stability under accelerated test conditions” value was “remained stable for 6 months” and the “PXRD spectra” value was “unchanged”.
